# In publication PMC8341399, “A STING-based fluorescent polarization assay for monitoring activities of cyclic dinucleotide metabolizing enzymes” (RSC Chemical Biology, 2020):
# Like-named read-outs stand apart in the source and are kept apart here.
# Tests used:
# hSTING [1] = molecular target: T1, hSTING (Homo sapiens, UniProt Q86WV6); test: hSTING titration of fluorescein-labeled cyclic dinucleotide probes by fluorescence polarization; assay type: binding; settings: 50 nM probe, 1× PBS, 5 min room temperature, n = 3; read-out: Kd (dissociation constant, probe-hSTING)
# T1 construct: SUMO; His; made in house; host or cells: E. coli Rosetta 2(pLysS)
# hSTING [2] = molecular target: T1, hSTING; settings: cited from earlier work; for Kd: natural cyclic dinucleotides, read-out: Kd (binding constant for hSTING)
# hSTING [3] = molecular target: T1, hSTING; test: Probe displacement assay: F-c-di-GMP displaced from hSTING by unlabeled cyclic dinucleotides (FP); assay type: binding; settings: 50 nM F-c-di-GMP, 10 μM hSTING; read-out: apparent half maximal inhibitory concentration (displacement of F-c-di-GMP)
# hENPP1 [4] = test system: T2, hENPP1; test: ENPP1 cGAMP hydrolysis tracking, FP assay detection; assay type: biochemical, human; settings: ENPP1 9.16 nM, 50 μM cGAMP
# T2 construct: purchased R&D Systems
# hENPP1 [5] = test system: T2, hENPP1; test: ENPP1 cGAMP hydrolysis tracking, HPLC analysis; assay type: biochemical, human; settings: ENPP1 9.16 nM, 50 μM cGAMP
# [6] = ENPP1 hydrolysis products of cGAMP, stated without reference
# T1 sequence (Q86WV6 155-341 limits assumed): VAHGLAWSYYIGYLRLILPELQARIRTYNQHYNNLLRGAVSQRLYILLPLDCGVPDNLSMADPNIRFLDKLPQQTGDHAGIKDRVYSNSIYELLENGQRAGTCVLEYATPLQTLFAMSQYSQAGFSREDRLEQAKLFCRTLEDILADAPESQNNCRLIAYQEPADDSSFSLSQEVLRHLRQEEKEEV
molecule,measurement,setting,value
2′-O-(6-[fluoresceinyl]aminohexylcarbamoyl)-cyclic diadenosine monophosphate [F-c-di-AMP],Kd,hSTING [1],29.8 ± 6.3 µM
2′-O-(6-[fluoresceinyl]aminohexylcarbamoyl)-cyclic diguanosine monophosphate [F-c-di-GMP],Kd,hSTING [1],3.45 ± 0.48 µM
Nc1ncnc2c1ncn2[C@@H]1O[C@H](COP(=O)(O)O)[C@@H](O)[C@H]1O [AMP],hSTING binding,hSTING [2]; [6],do not bind
Nc1nc2c(ncn2[C@@H]2O[C@H](COP(=O)(O)O)[C@@H](O)[C@H]2O)c(=O)[nH]1 [GMP],hSTING binding,hSTING [2]; [6],do not bind
Nc1nc2c(ncn2[C@@H]2O[C@H](CO)[C@@H](O)[C@H]2OP(=O)(O)OC[C@H]2O[C@@H](n3cnc4c(N)ncnc43)[C@H](O)[C@@H]2OP(=O)(O)O)c(=O)[nH]1 [Gp[2′–5′]Ap[3′]],hSTING binding,hSTING [2]; poxin product of cGAMP,does not bind
Nc1ncnc2c1ncn2[C@@H]1O[C@@H]2COP(=O)(O)O[C@H]3[C@@H](O)[C@H](n4cnc5c(N)ncnc54)O[C@@H]3COP(=O)(O)O[C@H]2[C@H]1O [c-di-AMP],Kd,hSTING [2],1.38 µM
same,IC50,hSTING [3],7.35 ± 0.86 µM
Nc1nc2c(ncn2[C@@H]2O[C@@H]3COP(=O)(O)O[C@H]4[C@@H](O)[C@H](n5cnc6c(=O)[nH]c(N)nc65)O[C@@H]4COP(=O)(O)O[C@H]3[C@H]2O)c(=O)[nH]1 [c-di-GMP],Kd,hSTING [2],1.21 µM
same,IC50,hSTING [3],7.41 ± 0.49 µM
"Nc1nc2c(ncn2[C@@H]2O[C@@H]3COP(=O)(O)O[C@H]4[C@@H](O)[C@H](n5cnc6c(N)ncnc65)O[C@@H]4COP(=O)(O)O[C@@H]2[C@@H]3O)c(=O)[nH]1 [cGAMP, 2′3-cGAMP]",cGAMP percent cleavage FP Assay,hENPP1 [4]; 0 min,0%
same,cGAMP percent cleavage FP Assay,hENPP1 [4]; 10 min,49%
same,cGAMP percent cleavage FP Assay,hENPP1 [4]; 20 min,77%
same,cGAMP percent cleavage FP Assay,hENPP1 [4]; 30 min,98%
same,cGAMP percent cleavage FP Assay,hENPP1 [4]; 40 min,95%
same,cGAMP percent cleavage FP Assay,hENPP1 [4]; 50 min (assumed 100% cleavage),100%
same,cGAMP percent cleavage HPLC,hENPP1 [5]; 0 min,0%
same,cGAMP percent cleavage HPLC,hENPP1 [5]; 10 min,44%
same,cGAMP percent cleavage HPLC,hENPP1 [5]; 20 min,56%
same,cGAMP percent cleavage HPLC,hENPP1 [5]; 40 min,76%
same,cGAMP percent cleavage HPLC,hENPP1 [5]; 50 min,85%
